The supplement of paper PMC10307832

Legend:
Experiment in all cases: relative viability (nuclei count vs DMSO), 5 days (fraction); higher = more cells survive
Entinostat + Olaparib = compound: Nc1ccccc1NC(=O)c1ccc(CNC(=O)OCc2cccnc2)cc1 [Entinostat] + O=C(c1cc(Cc2n[nH]c(=O)c3ccccc23)ccc1F)N1CCN(C(=O)C2CC2)CC1 [Olaparib] (partner 8 µM)
Outline: (§1)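 Relative viability was taken as the ratio of nuclei in treated wells to nuclei in vehicle wells. Lung cancer cell lines in 1536-well plates received compounds by pin tool one day after seeding, either one drug alone or a fixed anchor-drug dose plus five library-drug doses (not always all listed) in √10 steps. Nuclei were counted on 4× images after 5 days of treatment, and values are medians of duplicate plates.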

Entinostat + Pictilisib = compound: Nc1ccccc1NC(=O)c1ccc(CNC(=O)OCc2cccnc2)cc1 [Entinostat] + CS(=O)(=O)N1CCN(Cc2cc3nc(-c4cccc5[nH]ncc45)nc(N4CCOCC4)c3s2)CC1 [Pictilisib] (partner 1 µM)
Outline: as §1

SGI-1776 + OSI-027 = compound: CN1CCC(CNc2ccc3ncc(-c4cccc(OC(F)(F)F)c4)n3n2)CC1 [SGI-1776] + COc1cccc2cc(-c3nc([C@H]4CC[C@H](C(=O)O)CC4)n4ncnc(N)c34)[nH]c12 [OSI-027] (partner 0.5 µM)
Outline: as §1

SGI-1776 + Olaparib = compound: CN1CCC(CNc2ccc3ncc(-c4cccc(OC(F)(F)F)c4)n3n2)CC1 [SGI-1776] + O=C(c1cc(Cc2n[nH]c(=O)c3ccccc23)ccc1F)N1CCN(C(=O)C2CC2)CC1 [Olaparib] (partner 8 µM)
Outline: as §1

Cell Line	relative viability (Entinostat + Olaparib; first compound 0.02 µM)	relative viability (Entinostat + Olaparib; first compound 0.06325 µM)	relative viability (Entinostat + Olaparib; first compound 0.2 µM)	relative viability (Entinostat + Olaparib; first compound 0.6325 µM)	relative viability (Entinostat + Olaparib; first compound 2 µM)	relative viability (Entinostat + Pictilisib; first compound 0.02 µM)	relative viability (Entinostat + Pictilisib; first compound 0.06325 µM)	relative viability (Entinostat + Pictilisib; first compound 0.2 µM)	relative viability (Entinostat + Pictilisib; first compound 0.6325 µM)	relative viability (Entinostat + Pictilisib; first compound 2 µM)	relative viability (SGI-1776 + OSI-027; first compound 0.08 µM)	relative viability (SGI-1776 + OSI-027; first compound 0.8 µM)	relative viability (SGI-1776 + OSI-027; first compound 2.53 µM)	relative viability (SGI-1776 + OSI-027; first compound 8 µM)	relative viability (SGI-1776 + Olaparib; first compound 0.08 µM)	relative viability (SGI-1776 + Olaparib; first compound 0.8 µM)	relative viability (SGI-1776 + Olaparib; first compound 2.53 µM)	relative viability (SGI-1776 + Olaparib; first compound 8 µM)
NCI-H1437	0.491	0.378	0.309	0.228	0.196	0.415	0.255	0.182	0.147	0.112	0.913	0.976	0.819	0.806	0.65	0.618	0.6	0.552
EKVX	0.766	0.829	0.825	0.73	0.386	0.441	0.517	0.36	0.298	0.217	0.707	0.736	0.755	0.612	0.827	0.906	0.875	0.737
NCI-H460	0.37	0.328	0.137	0.0676	0.0406	0.328	0.411	0.333	0.132	0.108	0.68	0.587	0.646	0.255	0.503	0.482	0.431	0.481
NCI-H1993	1.25	1.11	1.01	0.892	0.375	0.878	0.876	0.916	0.888	0.833	0.549	0.52	0.551	0.525	0.989	0.943	1.01	0.955
HCC-78	0.771	0.722	0.577	0.386	0.355	0.212	0.194	0.178	0.108	0.128	0.407	0.418	0.385	0.398	0.891	0.91	0.801	0.95
NCI-H2087	0.498	0.554	0.511	0.329	0.206	0.741	0.822	0.826	0.353	0.315	0.704	0.693	0.566	0.496	0.601	0.637	0.727	0.521
H3255	0.606	0.51	0.454	0.364	0.308	0.475	0.395	0.301	0.202	0.168	0.65	0.643	0.651	0.555	0.563	0.595	0.646	0.529
NCI-H2126	0.953	0.925	0.886	0.742	0.539	0.44	0.545	0.47	0.301	0.298	0.708	0.813	0.693	0.659	0.99	0.936	0.911	0.91
LCLC-103H	0.748	0.738	0.684	0.528	0.447	0.611	0.603	0.636	0.452	0.479	0.481	0.446	0.457	0.425	0.781	0.776	0.716	0.7
RERF-LC-KJ	0.901	0.903	0.795	0.373	0.282	0.695	0.527	0.516	0.431	0.375	0.592	0.52	0.507	0.305	0.866	0.92	0.802	0.586
EBC-1	0.68	0.732	0.696	0.203	0.174	0.313	0.363	0.193	0.12	0.0976					0.74	0.732	0.687	0.573
HCC-15	0.684	0.617	0.56	0.377	0.201	0.714	0.663	0.626	0.188	0.266	0.655	0.651	0.559	0.437	0.717	0.759	0.755	0.687
NCI-H1650	0.828	0.967	0.819	0.527	0.363	0.65	0.67	0.554	0.407	0.248	0.627	0.565	0.417	0.197	0.8	0.946	0.734	0.607
COR-L 105	0.683	0.825	0.773	0.483	0.407	0.414	0.425	0.38	0.346	0.262	0.746	0.716	0.658	0.38	0.775	0.726	0.77	0.631
NCI-H596	0.748	0.662	0.667	0.558	0.405	0.401	0.4	0.372	0.333	0.348	0.809	0.761	0.682	0.467	0.662	1	0.82	0.696
LXF-289	1.07	0.978	0.875	0.714	0.523	0.78	0.81	0.657	0.393	0.191	0.794	0.843	0.764	0.707	0.966	1.12	1.1	1.03
NCI-H1703	0.388	0.435	0.545	0.7	0.454	0.263	0.274	0.314	0.384	0.304					0.338	0.394	0.387	0.12
NCI-H2170	0.565	0.557	0.515	0.341	0.215	0.38	0.375	0.325	0.235	0.167	0.741	0.671	0.666	0.67	0.638	0.686	0.651	0.614
